Patent US20220332799A1, “HERV INHIBITORS FOR USE IN TREATING TAUOPATHIES” (Deutsches Zentrum Für Neurodegenerative Erkrankungen E.V. …, priority 2019, published 2022)
“Also recorded” adds a separate entry of the source. Like-named read-outs stand apart in the source and are kept apart here.

Tests used:
N2a NM-GFP^sol cells = format: cell-based, mouse; details: for percentage of recipient cells with NM-GFP aggregates: compounds added to cocultures 1 h after co-seeding, three concentrations, 12 h
MuERV Env = assay: Western blot of Env maturation in donor cell lysates and EVs; format: cell-based, mouse; details: donor cells 10 μM, 3 days, vs DMSO
Method: Cell lysates and EVs derived from Amprenavir-treated donor cell clone N2a NM-HA^agg s2E were analyzed for Env maturation by Western blot. Amprenavir-treated cell lysate and EVs lack the proteolytical mature Env transmembrane (TM) fragment p15E required for receptor binding. Cleaved products and degradation intermediates were detected by anti-MuLV virus antibody ABIN457298. Presumed bands representing Env precursor protein (gp85 and gp70), Pr15E or cleavage product (p15E) are indicated. • b., c. Aggregate induction in recipient N2a NM-GFP^sol cells cocultured with Amprenavir-pretreated N2a NM-HA^agg s2E donor cells or (c) in recipient cells exposed to EVs derived from Amprenavir-treated donors. • d. EVs from donor clone N2a NM-HA^agg s2E were incubated with increasing concentrations of anti-Env antibody mAb83A25 for 1 h and added to recipient N2a NMGFP^sol cells for 16 h. • e, g. Donor clone N2a NM-HA^agg s2E was transfected with three individual siRNAs (SEQ ID NO 14-19) against endogenous Env (e) or (SEQ ID NO 20-25) against Gag (g). […] MuERV Env and Gag protein levels were analyzed by Western blot. • l. […] Recipient N2a NM-GFP^sol cells were transfected with two siRNAs against XPR1 (SEQ ID NO 26-29), siRNA against mCat-1 (SEQ ID NO 30 and 31) or with non-silencing siRNA control. mRNA knock-down was assessed 48 h post siRNA transfection by quantitative PCR. […]

| SMILES | percentage of recipient cells with NM-GFP aggregates (N2a NM-GFP^sol cells; vs DMSO) | percentage of recipient cells with NM-GFP aggregates (N2a NM-GFP^sol cells; vs DMSO, listed as amprenavir) | intercellular aggregate induction during coculture (N2a NM-GFP^sol cells; donor cells pre-treated with 10 μM for 3 days, coculture in the absence of drug, 16 h) | Env protein maturation to TM p15E (MuERV Env) | NM aggregate induction in recipient cells cocultured with pretreated donors (N2a NM-GFP^sol cells; s2E P1 donors pretreated, Aza 200 nM or Dec 100 nM, vs DMSO) |
| --- | --- | --- | --- | --- | --- |
| CC(C)CN(C[C@@H](O)[C@H](Cc1ccccc1)NC(=O)O[C@H]1CCOC1)S(=O)(=O)c1ccc(N)cc1 [Amprenavir] | reduce aggregate induction; also recorded: observed only when donor cells were cotreated | reduced the percentage of recipient cells with NM-GFP aggregates | significantly inhibited intercellular aggregate induction during coculture | efficiently inhibited Env protein maturation to TM p15E; also recorded: inhibits maturation of endogenous MuERV proteins, including Env |  |
| Nc1ncn([C@H]2C[C@H](O)[C@@H](CO)O2)c(=O)n1 [Decitabine, 5-aza-2′-deoxycytidine] |  |  |  |  | significantly increased NM aggregate induction in recipient cells |
